Counter-ions that a name gives are not always drawn.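 Exposure lasted 48 hours, with cells grown in 96-well plates and compounds tested at five concentrations. GI50 marks 50% less growth.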 Calls of active or inactive are those of the source. Cut-off read from the data, not from the text of the source: active = GI50 up to about 1.1 µM and inactive = higher.
Columns and labels:
Assay in all cases: NCI anticancer screen, dose series, 48 h
ACHN = test system: ACHN
RPMI-8226 = test system: RPMI-8226
U-251 = test system: U-251
MDA-MB-231 = test system: MDA-MB-231
HT-29 = test system: HT-29
DU-145 = test system: DU-145
HCT-116 = test system: HCT-116
M14 = test system: M14
IGROV-1 = test system: IGROV-1
SF-295 = test system: SF-295
NCI-H460 = test system: NCI-H460
T47D = test system: T47D
BT-549 = test system: BT-549
OVCAR-4 = test system: OVCAR-4
HOP-62 = test system: HOP-62
SK-MEL-2 = test system: SK-MEL-2
SN12C = test system: SN12C
NCI-H522 = test system: NCI-H522
RXF 393 = test system: RXF 393
SF-539 = test system: SF-539

Measured: GI50

Cc1nnc(N)nc1C/C=C/C(C)Sc1ccc(Cl)cc1 (stereo not drawn)
inactive: ACHN 7.46 µM | RPMI-8226 > 21.7 µM | U-251 8.93 µM | MDA-MB-231 20.1 µM | HT-29 16 µM | DU-145 11.9 µM | HCT-116 5.74 µM | M14 7.69 µM | IGROV-1 3.41 µM | SF-295 2.77 µM | NCI-H460 7.55 µM | T47D 8.07 µM | BT-549 5.22 µM | OVCAR-4 10.1 µM | HOP-62 6.47 µM | SK-MEL-2 12.8 µM | SN12C 11.1 µM | NCI-H522 4 µM | RXF 393 7.28 µM

C=C(C)C1(Sc2ccc(OC)cc2)CC1
inactive: ACHN 33.6 µM | SF-539 23.2 µM | RPMI-8226 9.29 µM | U-251 29 µM | MDA-MB-231 43.4 µM | HT-29 22.3 µM | DU-145 57.9 µM | HCT-116 27.2 µM | M14 35.1 µM | IGROV-1 30.5 µM | SF-295 26.9 µM | NCI-H460 31 µM | T47D 31.9 µM | BT-549 17.1 µM | OVCAR-4 34.9 µM | HOP-62 34.1 µM | SK-MEL-2 21.3 µM | SN12C 17.5 µM | RXF 393 17.6 µM

O=C1NC(NNc2ccccc2)=N/C1=C\c1ccco1
inactive: ACHN 13.2 µM | RPMI-8226 16.3 µM | U-251 17.7 µM | MDA-MB-231 20 µM | HT-29 18.6 µM | DU-145 17.5 µM | HCT-116 14.3 µM | M14 8.47 µM | IGROV-1 15.7 µM | SF-295 39.5 µM | NCI-H460 22.4 µM | T47D 14 µM | BT-549 21.2 µM | OVCAR-4 14.6 µM | HOP-62 33.9 µM | SK-MEL-2 12.9 µM | SN12C 22.1 µM | NCI-H522 12.9 µM | RXF 393 13.4 µM

CC(=O)c1c(C)cn(S(=O)(=O)NC(=O)Nc2nncs2)c1C
inactive: ACHN > 100 µM | RPMI-8226 > 100 µM | U-251 > 100 µM | MDA-MB-231 > 100 µM | HT-29 > 100 µM | DU-145 > 100 µM | HCT-116 > 100 µM | M14 > 100 µM | IGROV-1 > 100 µM | SF-295 > 100 µM | NCI-H460 > 100 µM | T47D > 100 µM | BT-549 > 100 µM | OVCAR-4 > 100 µM | HOP-62 > 100 µM | SK-MEL-2 > 100 µM | SN12C > 100 µM | NCI-H522 > 100 µM | RXF 393 > 100 µM

O=C1c2ccccc2-c2c1c1ccccc1c(=O)n2Cc1ccccc1
inactive: SF-539 57.1 µM | RPMI-8226 > 100 µM | U-251 93.8 µM | MDA-MB-231 50.1 µM | HT-29 > 100 µM | DU-145 81.5 µM | HCT-116 > 100 µM | M14 > 100 µM | IGROV-1 64.4 µM | SF-295 93.1 µM | T47D > 100 µM | BT-549 62.7 µM | OVCAR-4 14.5 µM | HOP-62 38.6 µM | SK-MEL-2 > 100 µM | SN12C > 100 µM | NCI-H522 54.3 µM

COc1ccc(/C(=N/N=c2\[nH]c3ccccc3n2Cc2ccccc2)C(=O)O)cc1
inactive: ACHN 22.6 µM | SF-539 23.7 µM | RPMI-8226 10 µM | U-251 11.1 µM | MDA-MB-231 23.3 µM | HT-29 22 µM | DU-145 30.7 µM | HCT-116 12.7 µM | M14 14.5 µM | IGROV-1 6.92 µM | SF-295 6.81 µM | NCI-H460 4.8 µM | T47D 14.7 µM | BT-549 25.1 µM | OVCAR-4 7.76 µM | HOP-62 10.5 µM | SK-MEL-2 28.4 µM | SN12C 5.96 µM | NCI-H522 8.65 µM

CN1[C@@H]2CC[C@H]1C[C@@H](OC(c1ccccc1)c1ccccc1)C2 [BENZTROPINE MESYLATE]
inactive: ACHN 19.7 µM | RPMI-8226 14.7 µM | U-251 15.5 µM | MDA-MB-231 17.5 µM | HT-29 11 µM | DU-145 26.9 µM | HCT-116 12.6 µM | M14 14.7 µM | IGROV-1 17 µM | SF-295 11.4 µM | T47D 17.3 µM | BT-549 19.1 µM | OVCAR-4 25.5 µM | HOP-62 15.6 µM | SK-MEL-2 17.1 µM | SN12C 27.9 µM | NCI-H522 14.9 µM | RXF 393 15.5 µM

CN(Cc1ccccc1)C(=S)S [SODIUM BENZYL(METHYL)CARBAMODITHIOATE]
inactive: ACHN 53.5 µM | U-251 38 µM | MDA-MB-231 88.5 µM | HT-29 37.5 µM | DU-145 53.5 µM | HCT-116 19.2 µM | M14 23.3 µM | IGROV-1 52.2 µM | SF-295 34 µM | NCI-H460 40.1 µM | T47D 78.7 µM | BT-549 77.4 µM | OVCAR-4 28.4 µM | HOP-62 43.2 µM | SK-MEL-2 55.7 µM | SN12C 52.4 µM | NCI-H522 27.8 µM | RXF 393 54.5 µM

— ChEMBL document CHEMBL1201862, “PubChem BioAssay data set” (2004)
